Where two headings read alike, the source gives them in different places.
Experiments:
[1] = system: kochia (KCHSC, Kochia scoparia); test: Greenhouse postemergence herbicidal effect; type: in vivo
Description: (§1) Seeds of the desired test plant species were planted in a 90:10% v/v (volume/volume) mixture of PRO-MIX® BX (Premier Tech Horticulture, Quakertown, PA, USA) and PROFILE® GREENS GRADE™ (Profile Products LLC, Buffalo Grove, IL, USA) planting mixture, which typically has a pH of 5.2 to 6.2 and an organic matter content of at least 50 percent, in plastic pots with a surface area of 103.2 square centimeters (cm^2). […] The plants were grown for 7-36 days (d) in a greenhouse with an approximate 14-hour (h) photo-period which was maintained at about 23° C. during the day and 22° C. during the night. Nutrients and water were added on a regular basis and supplemental lighting was provided with overhead metal halide 1000-Watt lamps as necessary. The plants were employed for testing when they reached the second or third true leaf stage.
(§2) Emulsifiable concentrates of each of each pyridine carboxylate herbicide (Compound A or Compound B) were prepared at 100 grams acid equivalent per liter (g ae/L). The emulsifiable concentrates also included a safener, cloquintocet-mexyl, at 120 grams active ingredient per liter (g ai/L), unless otherwise noted below. An aliquot of each emulsifiable concentrate was placed in a 25 mL glass vial and diluted with an aqueous mixture of 1.25% (v/v) ACTIROB® B esterified rapeseed oil (Bayer Crop Science, Research Triangle Park, NC, USA) or MSO® Concentrate with LECI-TECH® methylated soybean oil (Loveland Products, Loveland, CO, USA) to obtain concentrated stock solutions at the highest application rate for each herbicide, based upon a 12 milliliter (mL) application volume at a rate of 187 liters per hectare (L/ha). The concentrated stock solutions were further diluted with an aqueous mixture of 1.25% v/v ACTIROB® B or MSO® Concentrate with LECI-TECH® to obtain stock solutions at reduced application rates for each herbicide. Spray solutions of the herbicide combinations (Compound A or Compound B plus ALS herbicide) were prepared by adding weighed amounts or aliquots of the ALS herbicides to the stock solutions of Compound A or Compound B to form 12-mL spray solutions in two- or three-way combinations.
(§3) The spray solutions were applied to the plant material with an overhead Mandel track sprayer equipped with 8002E nozzles calibrated to deliver 187 L/ha over an application area of 0.503 square meters (m^2) at a spray height of 18 inches (43 centimeters (cm)) above the average plant canopy. Control plants were sprayed in the same manner with the solvent blank. All pyridine carboxylate herbicide (component a) application rates are given as “g ae/ha” and all ALS inhibitor (component b) application rates are given as “g ai/ha.”
(§4) The treated plants and control plants were placed in a greenhouse as described above and watered by sub-irrigation to prevent wash-off of the test compounds. After 20-22 d, the condition of the test plants as compared with that of the control plants was determined visually and scored on a scale of 0 to 100 percent where 0 corresponds to no injury and 100 corresponds to complete kill.

[2] = system: common lambsquarters (CHEAL, Chenopodium album L.); test: Greenhouse postemergence herbicidal effect; type: in vivo
Description: as §1, §2, §3, §4

[3] = system: pigweed (AMARE, Amaranthus retroflexus); test: Greenhouse postemergence herbicidal effect; type: in vivo
Description: (§5) The plants were grown for 7-36 days (d) in a greenhouse with an approximate 14-hour (h) photo-period which was maintained at about 23° C. during the day and 22° C. during the night. Nutrients and water were added on a regular basis and supplemental lighting was provided with overhead metal halide 1000-Watt lamps as necessary. The plants were employed for testing when they reached the second or third true leaf stage.
(§6) The emulsifiable concentrates also included a safener, cloquintocet-mexyl, at 120 grams active ingredient per liter (g ai/L), unless otherwise noted below.
(§7) Control plants were sprayed in the same manner with the solvent blank. All pyridine carboxylate herbicide (component a) application rates are given as “g ae/ha” and all ALS inhibitor (component b) application rates are given as “g ai/ha.”
as §4

[4] = system: wild mustard (SINAR, Sinapis arvensis); test: Greenhouse postemergence herbicidal effect; type: in vivo
Description: as §5, §6, §7, §4

[5] = system: wild chamomile (MATCH, Matricaria chamomilla); test: Greenhouse postemergence herbicidal effect; type: in vivo
Description: as §5, §6, §7, §4

[6] = system: wild buckwheat (POLCO, Polygonum convolvulus); test: Greenhouse postemergence herbicidal effect; type: in vivo; conditions: for % visual injury, Obs / Obs % visual injury: POLCO
Description: as §5, §6, §7, §4

[7] = system: Russian thistle (SASKR, Salsola kali); test: Greenhouse postemergence herbicidal effect; type: in vivo
Description: as §5, §6, §7, §4

[8] = system: winter rape (BRSNW, Brassica napus); test: Greenhouse postemergence herbicidal effect; type: in vivo
Description: as §5, §6, §7, §4

[9] = system: Canadian thistle (CIRAR, Cirsium arvense); test: Greenhouse postemergence herbicidal effect; type: in vivo
Description: as §5, §6, §7, §4

spring wheat (TRZAS) = type: in vivo, Triticum aestivum
Description: as §5, §6, §7, §4

spring barley (HORVS) = type: in vivo, Hordeum vulgare
Description: as §5, §6, §7, §4

## Cc1ccn2nc(S(=O)(=O)Nc3c(F)cccc3F)nc2n1 [Flumetsulam, flumetsulam]
[1]; Flumetsulam 4.375 g/ha
  % visual injury Obs: 5%
[2]; Flumetsulam 4.375 g/ha
  % visual injury Obs: 45%
[3]; Flumetsulam 4.375 g/ha
  % visual injury Obs: 98%
[4]; Flumetsulam 4.375 g/ha
  % visual injury Obs: 50%
[5]; Flumetsulam 4.375 g/ha
  % visual injury Obs: 83%
[6]; Flumetsulam 4.375 g/ha
  % visual injury Obs: 5%
[7]; Flumetsulam 4.375 g/ha
  % visual injury Obs: 0%
[8]; Flumetsulam 4.375 g/ha
  % visual injury Obs: 40%
[9]; Flumetsulam 4.375 g/ha
  % visual injury Obs: 5%

## CCc1cnc(C2=NC(C)(C(C)C)C(=O)N2)c(C(=O)O)c1 (centres unmarked) [Imazethapyr, imazethapyr]
[1]; Bassia scoparia, post-emergence, 35 g/ha, read-out: % visual injury, Obs
  pest or weed control at 35 g/ha: 53%
[2]; 35 g/ha
  % visual injury, Obs: 28%
[5]; 35 g/ha
  % visual injury, Obs: 18%
[7]; 35 g/ha
  % visual injury, Obs: 40%
[9]; Cirsium arvense, post-emergence, 35 g/ha, read-out: % visual injury, Obs
  pest or weed control at 35 g/ha: 40%

## COc1nc(C)nc(N(C)C(=O)NS(=O)(=O)c2ccccc2C(=O)O)n1 [Tribenuron, tribenuron]
[1]; KCHSC, Tribenuron 15 g/ha
  % visual injury, Obs: 50%
[2]; CHEAL, Tribenuron 15 g/ha
  % visual injury, Obs: 96%
[3]; AMARE, Tribenuron 15 g/ha
  % visual injury, Obs: 100%
[4]; SINAR, Tribenuron 15 g/ha
  % visual injury, Obs: 95%
[5]; MATCH, Tribenuron 15 g/ha
  % visual injury, Obs: 87%
[6]; Tribenuron 15 g/ha
  % visual injury, Obs: 78%
[8]; BRSNW, Tribenuron 15 g/ha
  % visual injury, Obs: 99%
[9]; CIRAR, Tribenuron 15 g/ha
  % visual injury, Obs: 89%

## Cc1cnc(C2=NC(C)(C(C)C)C(=O)N2)c(C(=O)O)c1 (centres unmarked) [Imazapic, imazapic]
[1]; KCHSC, Imazapic 35 g/ha
  Obs % visual injury: 80%
[2]; CHEAL, Imazapic 35 g/ha
  Obs % visual injury: 78%
[3]; AMARE, Imazapic 35 g/ha
  Obs % visual injury: 100%
[4]; SINAR, Imazapic 35 g/ha
  Obs % visual injury: 91%
[5]; MATCH, Imazapic 35 g/ha
  Obs % visual injury: 68%
[6]; Imazapic 35 g/ha
  Obs % visual injury: 63%
[7]; SASKR, Imazapic 35 g/ha
  Obs % visual injury: 35%
[8]; BRSNW, Imazapic 35 g/ha
  Obs % visual injury: 98%
[9]; CIRAR, Imazapic 35 g/ha
  Obs % visual injury: 68%

## COc1nn(C(=O)NS(=O)(=O)c2ccccc2OC(F)(F)F)c(=O)n1C [Flucarbazone, flucarbazone]
[1]; Bassia scoparia, post-emergence, KCHSC, Flurcarbazone 30 g/ha, read-out: % visual injury, Obs
  pest or weed control at 30 g/ha: 25%
[2]; CHEAL, Flurcarbazone 30 g/ha
  % visual injury, Obs: 10%
[3]; AMARE, Flurcarbazone 30 g/ha
  % visual injury, Obs: 98%
[4]; SINAR, Flurcarbazone 30 g/ha
  % visual injury, Obs: 88%
[5]; MATCH, Flurcarbazone 30 g/ha
  % visual injury, Obs: 18%
[6]; Flurcarbazone 30 g/ha
  % visual injury, Obs: 88%
[8]; BRSNW, Flurcarbazone 30 g/ha
  % visual injury, Obs: 83%
[9]; Cirsium arvense, post-emergence, CIRAR, Flurcarbazone 30 g/ha, read-out: % visual injury, Obs
  pest or weed control at 30 g/ha: 28%

## iodosulfuron
Spring wheat (TRZAS); TRZAS, Iodosulfuron 33.75 g/ha
  % visual injury, Obs: 0%
Spring barley (HORVS); HORVS, Iodosulfuron 33.75 g/ha
  % visual injury, Obs: 0%
[1]; KCHSC, Iodosulfuron 33.75 g/ha
  % visual injury, Obs: 70%
[2]; CHEAL, Iodosulfuron 33.75 g/ha
  % visual injury, Obs: 90%
[3]; AMARE, Iodosulfuron 33.75 g/ha
  % visual injury, Obs: 98%
[4]; SINAR, Iodosulfuron 33.75 g/ha
  % visual injury, Obs: 100%
[5]; MATCH, Iodosulfuron 33.75 g/ha
  % visual injury, Obs: 85%
[6]; Iodosulfuron 33.75 g/ha
  % visual injury, Obs: 85%
[8]; BRSNW, Iodosulfuron 33.75 g/ha
  % visual injury, Obs: 98%
[9]; CIRAR, Iodosulfuron 33.75 g/ha
  % visual injury, Obs: 85%

## COc1nc(C)nc(NC(=O)NS(=O)(=O)c2ccccc2C(=O)O)n1 [Metsulfuron, metsulfuron]
[1]; KCHSC, Metsulfuron 3 g/ha
  % visual injury, Obs: 75%
[2]; CHEAL, Metsulfuron 3 g/ha
  % visual injury, Obs: 98%
[3]; AMARE, Metsulfuron 3 g/ha
  % visual injury, Obs: 100%
[4]; SINAR, Metsulfuron 3 g/ha
  % visual injury, Obs: 88%
[5]; MATCH, Metsulfuron 3 g/ha
  % visual injury, Obs: 96%
[6]; Metsulfuron 3 g/ha
  % visual injury, Obs: 85%
[8]; BRSNW, Metsulfuron 3 g/ha
  % visual injury, Obs: 90%
[9]; CIRAR, Metsulfuron 3 g/ha
  % visual injury, Obs: 85%

## COc1nn(C(=O)NS(=O)(=O)c2c(C(=O)O)csc2C)c(=O)n1C [Thiencarbazone, thiencarbazone]
Spring wheat (TRZAS); in vivo
  % visual injury: 0%
  % visual injury Obs: 0%
Spring barley (HORVS); in vivo
  % visual injury: 0%
  % visual injury Obs: 8%
[1]; Thiencarbazone 5 g/ha
  % visual injury: 25%
[1]; Thiencarbazone 10 g/ha
  % visual injury Obs: 45%
[2]; Thiencarbazone 5 g/ha
  % visual injury: 60%
[2]; Thiencarbazone 10 g/ha
  % visual injury Obs: 83%
[3]; Thiencarbazone 5 g/ha
  % visual injury: 83%
[3]; Thiencarbazone 10 g/ha
  % visual injury Obs: 98%
[4]; Thiencarbazone 5 g/ha
  % visual injury: 95%
[4]; Thiencarbazone 10 g/ha
  % visual injury Obs: 90%
[5]; Thiencarbazone 5 g/ha
  % visual injury: 55%
[5]; Thiencarbazone 10 g/ha
  % visual injury Obs: 80%
[6]; Thiencarbazone 5 g/ha
  % visual injury: 89%
[6]; Thiencarbazone 10 g/ha
  % visual injury Obs: 95%
[7]; Thiencarbazone 5 g/ha
  % visual injury: 53%
[8]; Thiencarbazone 5 g/ha
  % visual injury: 97%
[8]; Thiencarbazone 10 g/ha
  % visual injury Obs: 98%
[9]; Thiencarbazone 5 g/ha
  % visual injury: 10%
[9]; Thiencarbazone 10 g/ha
  % visual injury Obs: 45%

## mesosulfuron
[1]; KCHSC, Mesosulfuron 9 g/ha
  % visual injury, Obs: 13%
[1]; Mesosulfuron 3 g/ha
  % visual injury: 0%
[2]; CHEAL, Mesosulfuron 9 g/ha
  % visual injury, Obs: 48%
[2]; Mesosulfuron 3 g/ha
  % visual injury: 30%
[3]; AMARE, Mesosulfuron 9 g/ha
  % visual injury, Obs: 100%
[3]; Mesosulfuron 3 g/ha
  % visual injury: 78%
[4]; Mesosulfuron 3 g/ha
  % visual injury: 98%
[4]; SINAR, Mesosulfuron 9 g/ha
  % visual injury, Obs: 94%
[5]; MATCH, Mesosulfuron 3 g/ha
  Obs % visual injury: 10%
[5]; MATCH, Mesosulfuron 9 g/ha
  % visual injury, Obs: 45%
[5]; Mesosulfuron 3 g/ha
  % visual injury: 15%
[6]; Mesosulfuron 3 g/ha
  % visual injury: 20%
  Obs % visual injury: 3%
[6]; Mesosulfuron 9 g/ha
  % visual injury, Obs: 28%
[7]; Mesosulfuron 3 g/ha
  % visual injury: 15%
[8]; BRSNW, Mesosulfuron 9 g/ha
  % visual injury, Obs: 95%
[8]; Mesosulfuron 3 g/ha
  % visual injury: 100%
[9]; CIRAR, Mesosulfuron 9 g/ha
  % visual injury, Obs: 73%
[9]; Mesosulfuron 3 g/ha
  % visual injury: 78%

## COc1cc(OC)nc(Oc2cccc(Oc3nc(OC)cc(OC)n3)c2C(=O)O)n1 [Bispyrabac]
Spring wheat (TRZAS); Bispyrabac 20 g/ha
  % visual injury Obs: 0%
Spring barley (HORVS); Bispyrabac 20 g/ha
  % visual injury Obs: 13%
[1]; Bispyrabac 20 g/ha
  % visual injury Obs: 10%
[2]; Bispyrabac 20 g/ha
  % visual injury Obs: 0%
[3]; Bispyrabac 20 g/ha
  % visual injury Obs: 100%
[4]; Bispyrabac 20 g/ha
  % visual injury Obs: 96%
[5]; Bispyrabac 20 g/ha
  % visual injury Obs: 23%
[6]; Bispyrabac 20 g/ha
  % visual injury Obs: 96%
[8]; Bispyrabac 20 g/ha
  % visual injury Obs: 100%
[9]; Bispyrabac 20 g/ha
  % visual injury Obs: 68%

Source: patent US12285012B2, “Compositions comprising pyridine carboxylate herbicides with acetolactate synthase (ALS) inhibitor herbicides” (Corteva Agriscience LLC, priority 2018, dated 2025)
